BindingDB's records for patent US20250115583 (Corcept Therapeutics, 2025)

Biological target: T1, Glucocorticoid receptor (Homo sapiens, UniProt P04150)
T1 sequence (P04150 whole entry): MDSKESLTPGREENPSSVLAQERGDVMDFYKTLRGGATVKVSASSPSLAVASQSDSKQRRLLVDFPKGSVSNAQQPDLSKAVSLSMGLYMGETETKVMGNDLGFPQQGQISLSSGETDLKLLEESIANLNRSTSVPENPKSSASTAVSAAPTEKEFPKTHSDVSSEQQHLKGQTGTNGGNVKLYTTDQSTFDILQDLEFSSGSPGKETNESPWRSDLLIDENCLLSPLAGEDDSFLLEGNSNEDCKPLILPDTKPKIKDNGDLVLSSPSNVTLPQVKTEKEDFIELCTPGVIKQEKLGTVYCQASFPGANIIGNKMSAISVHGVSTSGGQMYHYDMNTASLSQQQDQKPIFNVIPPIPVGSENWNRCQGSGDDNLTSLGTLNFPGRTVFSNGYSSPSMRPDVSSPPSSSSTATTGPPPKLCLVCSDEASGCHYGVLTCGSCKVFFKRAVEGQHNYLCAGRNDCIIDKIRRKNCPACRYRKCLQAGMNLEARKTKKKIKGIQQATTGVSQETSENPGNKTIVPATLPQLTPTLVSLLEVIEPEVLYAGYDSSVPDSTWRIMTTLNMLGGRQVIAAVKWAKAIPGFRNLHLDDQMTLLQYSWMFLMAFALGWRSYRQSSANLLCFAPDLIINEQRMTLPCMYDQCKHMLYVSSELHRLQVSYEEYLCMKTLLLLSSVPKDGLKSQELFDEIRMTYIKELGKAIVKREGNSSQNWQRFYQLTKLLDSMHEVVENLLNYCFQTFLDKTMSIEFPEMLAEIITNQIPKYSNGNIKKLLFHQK
Assay: GR Binding Assay
Description: Binding of test compounds to the glucocorticoid receptor (GR) is determined using a fluorescence polarisation (FP) assay utilising a recombinant ligand binding domain (LBD) of GR. The test compounds are assessed by their ability to displace a fluorescently tagged ligand and detection of the resulting decrease in fluorescence polarisation.

| Ki | SMILES |
| --- | --- |
| 360 nM | Cc1cc2c(cnn2-c2ccc(F)cc2)cc1[C@@]12CN(S(=O)(=O)c3cnn(C)n3)C[C@@H]1[C@H]2C(=O)N1CCC1 [US20250115583, Example 59] |
| 19 nM | Cc1cc2c(cnn2-c2ccc(F)cc2)cc1[C@@]12CN(C(=O)c3nn(C)cc3Cl)C[C@@H]1[C@H]2c1ccccc1 [US20250115583, Example 178] |
